Source: US4053603A, “Benzylisoquinoline derivatives, and use as anti-arrhythmic drugs” (Astra Pharmaceutical Products, Inc., priority 1976, dated 1977)
“And” between values parts separate entries of the source, which are not always exact repeats. Identical values can stand only once. “Also recorded” adds a separate entry of the source. Like-named read-outs stand apart in the source and are kept apart here.

Legend:
[1] = test system: mice; assay: central nervous system toxicity observation in mice (ataxia, convulsions, loss of righting reflex, death); format: in vivo, mouse (female Swiss albino, Ham/ICR); conditions: for Toxicity: Death (number of mice) / Toxicity: Ataxia (number of mice) / Toxicity: Con. (Convulsions) (number of mice) / Toxicity: LRR (Loss of righting reflex) (number of mice): 100 mg/kg s.c., 10 mice; for toxicity (in words): mice; for Toxicity: Ataxia (number of mice) / Toxicity: Con. (Convulsions) (number of mice) / Toxicity: LRR (Loss of righting reflex) (number of mice): 20 min observation
Procedure: (§1) Ventricular fibrillation was produced in female Swiss albino mice (Ham/ICR weighing 18-25g.) essentially according to the method described by Lawson in J. Pharm, Exp. Therap. 160, 22 (1968).
(§2) For initial evaluation of antiarrhythmic activity and toxicity of test compounds, a dose of 100 mg/kg (calculated for the base form, 1% solution in 0.9% saline, adjusted to pH 6-7) was administered subcutaneously to a group of 10 non-fasted, randomly selected mice. […] After 20 minutes they were exposed to chloroform vapors and tested for protection against fibrillation.

[2] = test system: heart; conditions: cited from earlier work
[3] = test system: chloroform-induced ventricular fibrillation; assay: protection against chloroform-induced ventricular fibrillation in mice; format: in vivo, mouse (female Swiss albino, Ham/ICR); conditions: for ED50: Mus musculus, sc, read-out: ED50 for protecting against fibrillation; for antiarrhythmic activity (in words): chloroform fibrillation; for relative Potency (molar basis): ED50^-1 in mmol/kg, standardized to compound 1 = 1
Procedure: as §1
The mice were placed individually into a 2,000 ml. beaker with cotton and 50 ml. of chloroform. Immediately after cessation of respiration the mouse was removed from the beaker, the thorax opened and the heart examined for the presence or absence of ventricular fibrillation. Each heart was stimulated by touching with forceps, and the nature of the cardiac rhythm was noted and confirmed by electrocardiographic recordings. The heart was considered to be fibrillating if fine tremulous movements were present on the surface of the ventricle and persisted for at least five seconds after the mechanical stimulus. Ventricular fibrillation was considered absent in those animals in which coordinated ventricular activity was evident following such procedures.
as §2
For determination of ED50 and relative potency of the compounds, three log-spaced doses of drug were selected to give a low, intermediate, and high degree of protection against fibrillation. Each dose was administered to 10 mice.
The data obtained from the three point assay was computer-analyzed using Berkson's minimum logit chi square analysis. The program was designed to give ED50 values with 95 percent Fieller limits.

[4] = test system: mice; assay: central nervous system toxicity observation in mice (ataxia, convulsions, loss of righting reflex, death); format: in vivo, mouse (female Swiss albino, Ham/ICR); conditions: 138 mg/kg s.c., 10 mice
[5] = test system: central nervous system; conditions: metabolite of lidocaine, high doses of lidocaine; cited from earlier work
[6] = test system: ventricular arrhythmias in coronary ligated dogs; assay: coronary ligated dogs, antiarrhythmic effect and toxicity, intravenous infusion (Harris procedure); format: in vivo, dog; conditions: for Mean Arterial Blood Pressure, values after administration / Ventricular Rate, values after administration: i.v. infusion 0.5 mg/kg/minute
Procedure: (§3) Further confirmation of the superiority of the secondary amine compound was provided by comparison of the secondary and tertiary amines in tests on coronary ligated dogs. The tests were conducted in accordance with the procedure of Harris given in Circulation, 1, 1318, 1950. The drugs were administered by the intravenous route by infusion at a dosage of 0.5 mg./kg./minute, in a volume of 0.97 ml./minute and a concentration of 5.2-4.3 mg/ml. The animals were weighed and the solutions prepared on the day of the experiment.

[7] = as above; format: in vivo, dog; conditions: dog, in vivo, iv
Procedure: as §3

[8] = mice, three log-spaced doses, 10 mice each, 95% Fieller limits in brackets

| Compound | Toxicity: Death (number of mice) [1] | antiarrhythmic activity (in words) ([3]; mice) | toxicity (in words) [1] | relative Potency (molar basis) [3] | ED50 [3, 8] | Toxicity: Ataxia (number of mice) [1] | Toxicity: Con. (Convulsions) (number of mice) [1] | Toxicity: LRR (Loss of righting reflex) (number of mice) [1] | further results |
| --- | --- | --- | --- | --- | --- | --- | --- | --- | --- |
| CCN(CC)CC(=O)Nc1c(C)cccc1C [Lidocaine, 2-diethylamino-2',6'-acetoxylidide, reference compound] | 0 | strong antiarrhythmic activity | – | – | – | – | – | – | antiarrhythmic effectiveness (in words) ([2]; intravenous and intramuscular): proved effective as an antiarrhythmic drug administered both intravenously and intramuscularly; ED50 [3]: 62 mg/kg |
| CCN(CC)CC(=O)Nc1c(CC2c3ccccc3CCN2C)ccc(OC)c1OC (stereo not drawn) [Compound 7] | – | essentially the same protection | comparable toxicity characteristics, as compound 1 | 1 | 160 mg/kg | – | – | – | Toxicity: Ataxia (number of mice) [4]: 0; Toxicity: Con. (Convulsions) (number of mice) [4]: 0; Toxicity: Death (number of mice) [4]: 0; Toxicity: LRR (Loss of righting reflex) (number of mice) [4]: 0 |
| CCNCC(=O)Nc1cc(OC)c(OC)cc1Cc1nccc2cc(OC)c(OC)cc12 [Compound 2] | 0 | comparable protection against fibrillation at the same test dose | toxicity symptoms; also recorded: higher toxicity | 1 | 142 mg/kg | 9 | 0 | 0 | – |
| CCNCC(=O)Nc1c(C)cccc1C [monoethylglycinexylidide] | – | – | – | – | – | – | – | – | contribution to convulsive symptoms of CNS toxicity (in words) [5]: appears to be the metabolite contributing to the production of the convulsive symptoms of central nervous system toxicity with high doses of lidocaine |
| CCN(CC)CC(=O)Nc1cc(OC)c(OC)cc1Cc1nccc2ccccc12 [Compound 6] | 0 | – | – | – | – | 7 | 0 | 0 | – |
| CCNCC(=O)Nc1c(Cc2nccc3ccccc23)ccc(OC)c1OC [Compound 4, 1-(2-[2-ethylamino-acetyl]amino-3,4-dimethoxybenzyl)isoquinoline] | 0 | markedly higher antiarrhythmic potency than both its tertiary amine congener, compound 3, and lidocaine | – | 3 | 54 mg/kg | 0 | 0 | 0 | abolishing severe arrhythmias (in words) ([6]; coronary ligated dogs, i.v.): effective in abolishing severe arrhythmias; central nervous system and cardiovascular toxicity at effective doses (in words) ([6]; coronary ligated dogs, i.v.): free from indications of central nervous system and cardiovascular toxicity; dose producing toxicity ([6]; dog, i.v. infusion): (c); Mean Arterial Blood Pressure, values after administration ([6]; dog): 125 and 85; Ventricular Rate, values after administration ([6]; dog): 147 and 123 |
| COc1ccc(Cc2nccc3cc(OC)c(OC)cc23)cc1OC [Papaverine, reference compound] | 0 | only little antiarrhythmic activity | some evidence of toxicity | – | – | 2 | 0 | 0 | cardiac effect / arrhythmia at clinical doses (in words) ([2]; background, clinical use): doses required were also found to cause dangerous arrhythmias by depression of A-V and intraventricular conduction |
| CCN(CC)CC(=O)Nc1cc(OC)c(OC)cc1Cc1nccc2cc(OC)c(OC)cc12 [Compound 1] | 0 | increased the antiarrhythmic activity | decreased the central nervous system toxicity | – | 211 mg/kg | 0 | 0 | 0 | – |
| COc1ccc(Cc2nccc3ccccc23)c(NC(=O)C(C)N)c1OC (stereo not drawn) [Compound 5] | 0 | did not show any outstanding properties | – | 1 | 257 mg/kg | 0 | 0 | 0 | – |
| CCN(CC)CC(=O)Nc1c(Cc2nccc3ccccc23)ccc(OC)c1OC [Compound 3] | 0 | greater antiarrhythmic activity | lower toxicity | 1 | 146 mg/kg | 0 | 0 | 0 | dose producing toxicity ([7]; Dose Producing Toxicity (convulsion)): 15.8 mg/kg; dose producing toxicity ([7]; Dose Producing Toxicity (profound head tremors)): 12.5 mg/kg; abolishing severe arrhythmias (in words) ([6]; coronary ligated dogs, i.v.): effective in abolishing severe arrhythmias; Mean Arterial Blood Pressure, values after administration ([6]; dog): 100 and 90; Ventricular Rate, values after administration ([6]; dog): 153 and 135; Dose Producing Toxicity (profound head tremors) ([6]; dog, in vivo, iv): 6.25 mg/kg |
